Data reported in ChEMBL document CHEMBL4184315, “Discovery of Inhibitor of Wnt Production 2 (IWP-2) and Related Compounds As Selective ATP-Competitive Inhibitors of Casein Kinase 1 (CK1) δ/ε” (J Med Chem, 2018).
Calls of active or inactive are those of the source. The rule behind the calls is not given here.

Experiments:
[1] = biological target: T1, Casein kinase I isoform delta (Rattus norvegicus, UniProt Q06486); test: Inhibition of full-length rat GST-tagged CK1delta using alpha-casein as substrate after 30 mins in presence of [gamma-32P]-ATP by Cherenkov counting method
[2] = biological target: T2, Casein kinase I isoform alpha (Bos taurus) (UniProt P67827); test: Inhibition of bovine GST-tagged CK1alpha at 1 uM using alpha-casein as substrate after 30 mins in presence of [gamma-32P]-ATP by Cherenkov counting method
T2 sequence (whole entry): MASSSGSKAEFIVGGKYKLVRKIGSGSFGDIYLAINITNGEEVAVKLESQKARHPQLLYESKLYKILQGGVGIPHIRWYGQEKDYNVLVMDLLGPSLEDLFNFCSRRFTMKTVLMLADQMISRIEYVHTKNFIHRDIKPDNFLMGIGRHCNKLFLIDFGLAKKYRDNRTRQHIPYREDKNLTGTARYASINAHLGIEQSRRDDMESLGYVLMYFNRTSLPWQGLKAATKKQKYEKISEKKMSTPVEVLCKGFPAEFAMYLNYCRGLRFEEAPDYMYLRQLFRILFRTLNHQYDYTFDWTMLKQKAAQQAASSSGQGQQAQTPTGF

[3] = biological target: Casein kinase I isoform gamma-3 (Homo sapiens) (UniProt Q9Y6M4); test: Inhibition of human GST-tagged CK1gamma3 at 1 uM using alpha-casein as substrate after 30 mins in presence of [gamma-32P]-ATP by Cherenkov counting method
Homo sapiens = species on record: Homo sapiens; test: Inhibition of Wnt/beta-catenin signaling in HEK293T cells after 22 hrs in presence of Wnt3A-conditioned medium by Super-top flash reporter gene assay; type: cell-based
HEK-293T [4] = test: Upregulation of renilla luciferase expression in HEK293T cells up to 5 uM after 22 hrs in presence of Wnt3A-conditioned medium by luminescence assay relative to control; type: cell-based; conditions: human
[5] = biological target: T3, Protein-serine O-palmitoleoyltransferase porcupine (Homo sapiens) (UniProt Q9H237); test: Inhibition of porcupine in HEK293T cells transfected with Wnt3A-expressing vector assessed as suppression of Wnt/beta-catenin signaling at 5 uM after 22 hrs by Super-top flash reporter gene assay relative to control; type: cell-based
T3 sequence (whole entry): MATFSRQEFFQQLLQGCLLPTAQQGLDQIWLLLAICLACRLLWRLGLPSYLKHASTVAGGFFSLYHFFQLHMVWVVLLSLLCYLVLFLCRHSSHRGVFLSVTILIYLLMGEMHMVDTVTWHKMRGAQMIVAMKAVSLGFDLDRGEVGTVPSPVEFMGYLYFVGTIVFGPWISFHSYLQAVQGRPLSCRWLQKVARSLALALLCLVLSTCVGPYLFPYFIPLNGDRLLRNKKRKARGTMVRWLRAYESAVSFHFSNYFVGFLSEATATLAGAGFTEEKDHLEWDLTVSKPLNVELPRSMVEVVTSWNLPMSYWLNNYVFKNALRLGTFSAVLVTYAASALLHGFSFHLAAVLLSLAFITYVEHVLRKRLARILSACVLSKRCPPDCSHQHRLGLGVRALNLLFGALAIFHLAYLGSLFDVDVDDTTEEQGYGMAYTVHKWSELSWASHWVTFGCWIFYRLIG

HEK-293T [6] = test: Upregulation of renilla luciferase expression in HEK293T cells transfected with Wnt3A-expressing vector up to 5 uM after 22 hrs by luminescence assay relative to control; type: cell-based; conditions: human
[7] = biological target: T4, Protein-serine O-palmitoleoyltransferase porcupine (Homo sapiens, UniProt Q9H237); test: Inhibition of porcupine in HEK293T cells transfected with Wnt3A-expressing vector assessed as suppression of Wnt/beta-catenin signaling after 22 hrs by Super-top flash reporter gene assay; type: cell-based
T4 sequence (Q9H237 whole entry): T3 sequence (whole entry)

[8] = biological target: Casein kinase I isoform epsilon (Homo sapiens, UniProt P49674); test: Inhibition of human recombinant CK1epsilon using alpha-casein as substrate after 30 mins in presence of [gamma-32P]-ATP by Cherenkov counting method
[9] = biological target: T1, Casein kinase I isoform delta; test: Inhibition of rat recombinant CK1delta kinase domain using alpha-casein as substrate after 30 mins in presence of [gamma-32P]-ATP by Cherenkov counting method
[10] = biological target: Casein kinase I isoform delta (Rattus norvegicus, UniProt Q06486, M82F); test: Inhibition of rat GST-tagged CK1delta M82F mutant at 10 uM using alpha-casein as substrate after 30 mins in presence of [gamma-32P]-ATP by Cherenkov counting method
[11] = biological target: T2, Casein kinase I isoform alpha (Bos taurus); test: Inhibition of bovine GST-tagged CK1alpha at 10 uM using alpha-casein as substrate after 30 mins in presence of [gamma-32P]-ATP by Cherenkov counting method
[12] = Antiproliferative activity against human A818-6 cells after 48 hrs by MTT assay; type: functional, cell-based
HEK293 = test: Antiproliferative activity against human HEK293 cells after 48 hrs by MTT assay; type: functional, cell-based; conditions: HEK293, 48 h
[13] = biological target: Casein kinase I isoform delta (Rattus norvegicus) (UniProt Q06486); test: Inhibition of full-length rat GST-tagged CK1delta at 10 uM using alpha-casein as substrate after 30 mins in presence of [gamma-32P]-ATP by Cherenkov counting method
[14] = biological target: Casein kinase I isoform delta (Rattus norvegicus) (UniProt Q06486); test: Inhibition of rat recombinant CK1delta kinase domain at 10 uM using alpha-casein as substrate after 30 mins in presence of [gamma-32P]-ATP by Cherenkov counting method
[15] = Selectivity ratio of IC50 for human CK1epsilon to IC50 for full-length rat GST-tagged CK1delta
[16] = biological target: Casein kinase I isoform gamma-3 (Homo sapiens) (UniProt Q9Y6M4); test: Inhibition of human GST-tagged CK1gamma3 at 10 uM using alpha-casein as substrate after 30 mins in presence of [gamma-32P]-ATP by Cherenkov counting method
PANC-1 = test: Antiproliferative activity against human PANC1 cells after 48 hrs by MTT assay; type: functional, cell-based; conditions: PANC-1, 48 h
[17] = biological target: Casein kinase I isoform delta (Rattus norvegicus) (UniProt Q06486); test: Ratio of IC50 for full-length rat GST-tagged CK1delta to IC50 for rat recombinant CK1delta kinase domain
HT-29 = test: Antiproliferative activity against human HT-29 cells after 48 hrs by MTT assay; type: functional, cell-based; conditions: HT-29, 48 h
CAPAN-1 = test: Antiproliferative activity against human Capan1 cells after 48 hrs by MTT assay; type: functional, cell-based; conditions: CAPAN-1, 48 h
[18] = Antiproliferative activity against human Panc89 cells after 48 hrs by MTT assay; type: functional, cell-based
[19] = Selectivity ratio of IC50 for human CK1epsilon to IC50 for rat recombinant CK1delta kinase domain
SW-620 = test: Antiproliferative activity against human SW620 cells after 48 hrs by MTT assay; type: functional, cell-based; conditions: SW-620, 48 h
MIA PaCa-2 = test: Antiproliferative activity against human MIAPaCa2 cells after 48 hrs by MTT assay; type: functional, cell-based; conditions: MIA PaCa-2, 48 h
[20] = biological target: T5, Casein kinase I delta/epsilon (Homo sapiens) (UniProt P48730+P49674); test: Inhibition of CK1delta/epsilon in HEK293T cells transfected with Wnt3A-expressing vector assessed as suppression of Wnt/beta-catenin signaling up to 0.1 uM after 22 hrs by Super-top flash reporter gene assay; type: cell-based
[21] = biological target: T5, Casein kinase I delta/epsilon (Homo sapiens); test: Inhibition of CK1delta/epsilon in HEK293T cells assessed as suppression of Wnt/beta-catenin signaling up to 0.1 uM after 22 hrs in presence of Wnt3A-conditioned medium by Super-top flash reporter gene assay; type: cell-based
Rattus norvegicus = species on record: Rattus norvegicus; test: Selectivity ratio of IC50 for full-length rat GST-tagged CK1delta to IC50 for rat GST-tagged CK1delta M82F mutant
[22] = biological target: Casein kinase I isoform delta (Rattus norvegicus) (UniProt Q06486); test: Competitive inhibition of full-length rat GST-tagged CK1delta at IC50 using alpha-casein as substrate after 30 mins in presence of 10 to 500 uM ATP and [gamma-32P]-ATP by Cherenkov counting method
[23] = biological target: T6, Casein kinase I isoform delta (Homo sapiens, UniProt P48730); conditions: 125 uM
[24] = biological target: Casein kinase I isoform delta (Rattus norvegicus) (UniProt Q06486); test: Inhibition of rat recombinant CK1delta kinase domain assessed as residual activity at 10 uM using alpha-casein as substrate after 30 mins in presence of [gamma-32P]-ATP by Cherenkov counting method
[25] = biological target: Casein kinase I isoform delta (Rattus norvegicus) (UniProt Q06486); test: Inhibition of full-length rat GST-tagged CK1delta assessed as residual activity at 10 uM using alpha-casein as substrate after 30 mins in presence of [gamma-32P]-ATP by Cherenkov counting method
[26] = biological target: T6, Casein kinase I isoform delta; test: Inhibition of CK1delta isolated from human PANC1 cells at 5 uM using GST-tagged p53 (1 to 64 residues) as substrate after 30 mins in presence of [gamma-32P]-ATP by Cherenkov counting method

Chain of Casein kinase I isoform gamma-3 (Homo sapiens) (Q9Y6M4 whole entry, looked up, canonical isoform): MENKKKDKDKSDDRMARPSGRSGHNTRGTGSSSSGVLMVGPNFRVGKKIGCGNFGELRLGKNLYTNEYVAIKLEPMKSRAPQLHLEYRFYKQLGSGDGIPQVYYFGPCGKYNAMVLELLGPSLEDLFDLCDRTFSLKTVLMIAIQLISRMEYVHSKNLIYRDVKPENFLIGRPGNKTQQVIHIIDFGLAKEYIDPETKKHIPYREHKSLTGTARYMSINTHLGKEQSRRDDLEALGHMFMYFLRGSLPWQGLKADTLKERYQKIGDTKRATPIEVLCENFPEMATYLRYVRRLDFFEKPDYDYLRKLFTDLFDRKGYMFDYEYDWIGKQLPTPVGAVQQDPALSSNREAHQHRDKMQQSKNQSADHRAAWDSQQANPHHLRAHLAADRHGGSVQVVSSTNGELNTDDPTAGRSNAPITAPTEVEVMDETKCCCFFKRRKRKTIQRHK
Chain of Casein kinase I isoform delta (Rattus norvegicus, UniProt Q06486, M82F) (Q06486 whole entry M82F, canonical isoform): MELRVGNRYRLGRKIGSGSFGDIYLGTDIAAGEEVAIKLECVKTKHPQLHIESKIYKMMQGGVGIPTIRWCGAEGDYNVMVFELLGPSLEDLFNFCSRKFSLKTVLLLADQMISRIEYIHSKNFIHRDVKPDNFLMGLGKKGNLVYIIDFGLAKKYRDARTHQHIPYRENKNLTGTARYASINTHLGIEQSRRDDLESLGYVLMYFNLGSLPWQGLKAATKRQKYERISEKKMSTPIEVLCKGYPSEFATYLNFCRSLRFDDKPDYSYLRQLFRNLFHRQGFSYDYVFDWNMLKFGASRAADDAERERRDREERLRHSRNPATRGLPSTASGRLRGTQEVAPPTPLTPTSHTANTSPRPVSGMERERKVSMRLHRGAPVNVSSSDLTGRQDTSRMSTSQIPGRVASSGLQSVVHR
Chain of Casein kinase I isoform epsilon (P49674 whole entry, the tested form may be a part, canonical isoform): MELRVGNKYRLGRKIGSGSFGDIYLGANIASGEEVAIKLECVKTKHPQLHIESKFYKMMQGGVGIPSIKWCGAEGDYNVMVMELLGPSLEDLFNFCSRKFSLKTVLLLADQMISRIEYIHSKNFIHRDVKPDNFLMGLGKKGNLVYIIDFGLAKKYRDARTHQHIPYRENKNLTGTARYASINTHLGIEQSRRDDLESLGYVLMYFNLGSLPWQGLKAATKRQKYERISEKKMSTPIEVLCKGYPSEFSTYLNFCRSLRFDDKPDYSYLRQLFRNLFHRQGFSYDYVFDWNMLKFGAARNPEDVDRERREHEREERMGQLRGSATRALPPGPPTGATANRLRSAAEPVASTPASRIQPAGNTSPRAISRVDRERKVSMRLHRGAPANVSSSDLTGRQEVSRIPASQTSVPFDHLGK
T1 sequence (Q06486 whole entry, canonical isoform): as the sequence (Q06486 whole entry M82F, canonical isoform) above, with F82M counted along it
Chain of Casein kinase I isoform delta (Rattus norvegicus) (Q06486 whole entry, looked up, the tested form may be a part, canonical isoform): as the sequence (Q06486 whole entry M82F, canonical isoform) above, with F82M counted along it
T6 sequence (P48730 whole entry, looked up, the tested form may be a part, canonical isoform): as the sequence (Q06486 whole entry M82F, canonical isoform) above, with F82M, V381I counted along it
T5 sequence (P48730 whole entry, looked up): as the sequence (Q06486 whole entry M82F, canonical isoform) above, with F82M, V381I counted along it
T5 sequence (P49674 whole entry, looked up): as the sequence (P49674 whole entry, the tested form may be a part, canonical isoform) above

O=C(CSc1nc2c(c(=O)n1Cc1cccc(C(F)(F)F)c1)SCC2)Nc1nc2ccc(C(F)(F)F)cc2s1
IC50 [1]: 1030 nM | inhibition [2]: Active | inhibition [3]: Active

Cc1cc(-c2ccc(CC(=O)Nc3ccc(-c4cccnc4)cc3)cc2)ccn1
inhibition (Homo sapiens): inactive | fold change (FC) (HEK-293T [4]): <= 1.5 | Imax [5]: 1.1% | fold change (FC) (HEK-293T [6]): <= 1.3 | IC50 [7]: < 1 nM

O=C(CSc1nc2c(c(=O)n1Cc1ccc(OC(F)(F)F)cc1)SCC2)Nc1nc2ccc(C(F)(F)F)cc2s1
IC50 [1]: 700 nM | inhibition [2]: Active | inhibition [3]: Active

COc1cccc(Cn2c(SCC(=O)Nc3nc4ccc(C(F)(F)F)cc4s3)nc3c(c2=O)SCC3)c1OC
IC50 [8]: 1230 nM | IC50 [1]: 760 nM | inhibition [2]: Active | IC50 [9]: 230 nM | inhibition [3]: Active | IC50 [10]: 210 nM

Cc1ccc2nc(NC(=O)CSc3nc4c(c(=O)n3-c3ccc(F)cc3)SCC4)sc2c1
inhibition [11]: inactive | EC50 [12]: > 10000 nM | EC50 (HEK293): 3500 nM | inhibition [13]: Active | inhibition [14]: Active | IC50 [8]: > 10000 nM | Ratio IC50 [15]: 4 to 7 | IC50 [1]: 1890 nM | IC50 [9]: 550 nM | inhibition [16]: Active | EC50 (PANC-1): 4870 nM | IC50 [10]: 150 nM | Ratio IC50 [17]: 4 | EC50 (HT-29): > 10000 nM | EC50 (CAPAN-1): > 10000 nM | EC50 [18]: 5070 nM | Ratio IC50 [19]: < 17 | EC50 (SW-620): 8620 nM | EC50 (MIA PaCa-2): 5340 nM

Fc1cccc(-n2cnc3c(NCc4nc5c(F)c(F)ccc5[nH]4)nc(N4CCOCC4)nc32)c1
inhibition [20]: Dose-dependent effect | inhibition [21]: Dose-dependent effect

Cc1ccc2nc(NC(=O)CSc3nc4c(c(=O)n3Cc3ccccc3)SCC4)sc2c1
inhibition [11]: inactive | EC50 [12]: > 10000 nM | EC50 (HEK293): > 10000 nM | inhibition [13]: Active | inhibition [14]: Active | IC50 [8]: 7340 nM | Ratio IC50 [15]: 4 to 7 | IC50 [1]: 1660 nM | Ratio IC50 (Rattus norvegicus): 28 | IC50 [9]: 420 nM | inhibition [16]: Active | EC50 (PANC-1): > 10000 nM | inhibition [22]: Active | IC50 [10]: 60 nM | Ratio IC50 [17]: 4 | EC50 (HT-29): > 10000 nM | EC50 (CAPAN-1): > 10000 nM | EC50 [18]: 3100 nM | Ratio IC50 [19]: < 17 | EC50 (SW-620): 8520 nM | EC50 (MIA PaCa-2): 5650 nM

O=C(CSc1nc2c(c(=O)n1-c1ccccc1)SCC2)Nc1nc2ccc(C(F)(F)F)cc2s1
IC50 [8]: 4120 nM | IC50 [1]: 660 nM | inhibition [2]: Active | IC50 [9]: 400 nM | inhibition [3]: Active | IC50 [10]: 210 nM

Nc1nccc(-c2c(-c3ccc(F)cc3)ncn2C2CCCCC2)n1
inhibition [23]: 40%

COc1ccccc1-n1c(SCC(=O)Nc2nc3ccc(C)cc3s2)nc2c(c1=O)SCC2
EC50 [12]: 930 nM | EC50 (HEK293): 280 nM | IC50 [8]: 7070 nM | Activity [24]: 22% | Ratio IC50 [15]: 4 to 7 | IC50 [1]: 1060 nM | Activity [25]: 25% | IC50 [9]: 1020 nM | EC50 (PANC-1): 230 nM | IC50 [10]: 140 nM | EC50 (HT-29): 340 nM | EC50 (CAPAN-1): 230 nM | EC50 [18]: 580 nM | Ratio IC50 [19]: < 17 | EC50 (SW-620): 230 nM | EC50 (MIA PaCa-2): 230 nM

COc1cc(OC)c(/C=C2/C(=O)Nc3ccccc32)c(OC)c1
inhibition [26]: 40%

O=C(CSc1nc2c(c(=O)n1Cc1ccccc1)SCC2)Nc1nc2ccc(C(F)(F)F)cc2s1
IC50 [8]: 1410 nM | IC50 [1]: 1060 nM | inhibition [2]: Active | IC50 [9]: 520 nM | inhibition [3]: Active | IC50 [10]: 270 nM

O=C(CSc1nc2c(c(=O)n1Cc1ccc(C(F)(F)F)cc1)SCC2)Nc1nc2ccc(C(F)(F)F)cc2s1
IC50 [1]: 330 nM | inhibition [2]: Active | inhibition [3]: Active
